Experimental data taken from US10508088B2, “Methods using HDAC11 inhibitors” (FORMA Therapeutics, Inc., priority 2016, dated 2019).

These compounds were tested against Recombinant N-terminal GST tag full-length human HDAC11 (Homo sapiens (Human), UniProt Q96DB2) (assay: Probe binding HDAC11 assay, time resolved fluorescence (TRF)). Settings: read-out: HDAC11 IC50 Range.
Sequence of Recombinant N-terminal GST tag full-length human HDAC11 (Q96DB2 whole entry): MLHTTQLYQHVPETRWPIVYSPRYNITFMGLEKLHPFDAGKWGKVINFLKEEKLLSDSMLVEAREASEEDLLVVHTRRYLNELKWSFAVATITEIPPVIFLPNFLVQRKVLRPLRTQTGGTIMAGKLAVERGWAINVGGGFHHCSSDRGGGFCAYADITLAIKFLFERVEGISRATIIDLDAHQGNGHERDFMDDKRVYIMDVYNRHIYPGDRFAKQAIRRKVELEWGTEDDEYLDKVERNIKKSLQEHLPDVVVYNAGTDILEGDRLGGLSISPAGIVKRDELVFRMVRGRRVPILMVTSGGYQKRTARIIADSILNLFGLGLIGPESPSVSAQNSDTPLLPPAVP
Protocol: The probe binding HDAC11 assay was performed using a time resolved fluorescence (TRF) assay format. Recombinant N-terminal GST tag full-length human HDAC11 was expressed and purified from baculovirus in Sf9 insect cells (SignalChem, # H93-30G-1000). Each assay was performed in 1536 black well microplates (Corning, #3936) in a final volume of 8 μL in assay buffer containing 50 mM HEPES (pH 7.5), 50 mM KCl, 50 mM NaCl, 0.5 mM GSH (L-Glutathione reduced, Sigma #G4251), 0.03% BGG (0.22 μM filtered, Sigma, #G7516-25G), and 0.01% Triton X-100 (Sigma, #T9284-10L). 100 nL of 10-point, 3-fold serial dilution in DMSO was pre-dispensed into respective wells of 1536 assay plates for a final test concentration range of 25 μM to 1.3 nM respectively. The final concentration in the assay of HDAC11 and probe (a fluorescein labeled HDAC 11 inhibitor) was 2.5 nM and 20 nM respectively. 4 μL of 2× probe and 2× anti-GST Terbium (Cisbio, #61GSTXLB) was added to assay plates followed by 4 μL of 2×HDAC11. Plates were incubated for 16 hours at room temperature before time resolved fluorescence was read on the Envision (Excitation at 340 nm, and Emission at 485 nm and 535 nm, Perkin Elmer).
Data from HDAC11 Assays were reported as percent inhibition (inh) compared with control wells based on the following equation: % inh=1−((FLU−AveLow)/(AveHigh−AveLow)) where FLU=measured time resolved fluorescence. AveLow=average time resolved fluorescence of no enzyme control (n=32). AveHigh=average time resolved fluorescence of DMSO control (n=32). IC50 values were determined by curve fitting of the standard 4 parameter logistic fitting algorithm included in the Activity Base software package: IDBS XE Designer Model205. Data is fitted using the Levenburg Marquardt algorithm.
With `O=C(NO)c1cccc(Cc2nc3cc(Cl)c(Cl)cc3[nH]2)c1` [Example 27-2, 3-((5,6-dichloro-1H-benzo[d]imidazol-2-yl)methyl)-N-hydroxybenzamide] the IC50 was less than 500 nM.
For `CCOc1cccc(-c2cc3[nH]c(Nc4cccc(C(=O)NO)c4)nc3cc2C(F)(F)F)c1` [Example 36-4, 3-((6-(3-ethoxyphenyl)-5-(trifluoromethyl)-1H-benzo[d]imidazol-2-yl)amino)-N-hydroxybenzamide], the IC50 was less than 500 nM.
Work on `CN(C)C(=O)c1cccc(-c2cc3[nH]c(Nc4cccc(C(=O)NO)c4)nc3cc2C(F)(F)F)c1` [Example 36-18, 3-(2-((3-(hydroxycarbamoyl)phenyl)amino)-5-(trifluoromethyl)-1H-benzo[d]imidazol-6-yl)-N,N-dimethylbenzamide] yielded an IC50 of less than 500 nM.
Work on `N#Cc1cc2nc(Oc3cccc(C(=O)NO)c3)[nH]c2cc1C(F)(F)F` [Example 26-1, 3-((5-cyano-6-(trifluoromethyl)-1H-benzo[d]imidazol-2-yl)oxy)-N-hydroxybenzamide] yielded an IC50 greater than 1000 nM.
Work on `CN(c1cccc(C(=O)NOC(=O)NCc2ccccc2)c1)c1nc2cc(C#N)c(C(F)(F)F)cc2[nH]1` [Example 37-2, N-((benzylcarbamoyl)oxy)-3-((5-cyano-6-(trifluoromethyl)-1H-benzo[d]imidazol-2-yl)(methyl)amino)benzamide] yielded an IC50 greater than 1000 nM.
For `O=C(NO)c1cccc(Nc2nc3cc(Cl)c(Cl)cc3o2)c1F` [Example 4-2, 3-((5,6-dichlorobenzo[d]oxazol-2-yl)amino)-2-fluoro-N-hydroxybenzamide], the IC50 was less than 500 nM.
`O=C(NO)c1cccc(Nc2nc3cc4c(cc3[nH]2)OCO4)c1` [Example 33-4, 3-((5H-[1,3]dioxolo[4′,5′:4,5]benzo[1,2-d]imidazol-6-yl)amino)-N-hydroxybenzamide] was tested, and the IC50 was greater than 1000 nM.
For `COc1cc2nc(Nc3cccc(C(=O)NO)c3)[nH]c2cc1Cl` [Example 33-19, 3-((6-chloro-5-methoxy-1H-benzo[d]imidazol-2-yl)amino)-N-hydroxybenzamide], the IC50 was 500 to 1000 nM.
`O=C(NO)c1cccc(Nc2nc3cc(-c4ccccc4)c(C(F)(F)F)cc3[nH]2)c1` [Example 36-1, N-hydroxy-3-((5-phenyl-6-(trifluoromethyl)-1H-benzo[d]imidazol-2-yl)amino)benzamide] was tested, and the IC50 was less than 500 nM.
`COCCn1c(Nc2cccc(C(=O)NO)c2)nc2cc(C(F)(F)F)c(-c3ccccc3)cc21` [Example 20-1, N-hydroxy-3-(1-(2-methoxyethyl)-6-phenyl-5-(trifluoromethyl)-1H-benzo[d]imidazol-2-ylamino)benzamide] showed an IC50 of less than 500 nM.
`CN(C)c1ccc(-c2cc3[nH]c(Nc4cccc(C(=O)NO)c4)nc3cc2C(F)(F)F)cn1` [Example 36-12, 3-((6-(6-(dimethylamino)pyridin-3-yl)-5-(trifluoromethyl)-1H-benzo[d]imidazol-2-yl)amino)-N-hydroxybenzamide] showed an IC50 of less than 500 nM.
For `COCCn1c(Nc2cccc(C(=O)NO)c2)nc2cc(-c3ccccc3)c(C(F)(F)F)cc21` [Example 20-2, N-hydroxy-3-((1-(2-methoxyethyl)-5-phenyl-6-(trifluoromethyl)-1H-benzo[d]imidazol-2-yl)amino)benzamide], the IC50 was less than 500 nM.
`O=C(NO)c1cccc(Nc2nc3nccnc3[nH]2)c1` [Example 29-1, 3-((1H-imidazo[4,5-b]pyrazin-2-yl)amino)-N-hydroxybenzamide] gave an IC50 greater than 1000 nM.
In the case of `O=C(NO)c1cccc(Nc2nc3cc(C(F)(F)F)c(-c4cnc(N5CCOCC5)nc4)cc3[nH]2)c1` [Example 36-13, N-hydroxy-3-((6-(2-morpholinopyrimidin-5-yl)-5-(trifluoromethyl)-1H-benzo[d]imidazol-2-yl)amino)benzamide], the IC50 is reported as less than 500 nM.
`CSc1ccc(-c2cc3[nH]c(Nc4cccc(C(=O)NO)c4)nc3cc2C(F)(F)F)cc1` [Example 36-5, N-hydroxy-3-((6-(4-(methylthio)phenyl)-5-(trifluoromethyl)-1H-benzo[d]imidazol-2-yl)amino)benzamide] showed an IC50 of less than 500 nM.
`NCCCCCn1c(Nc2cccc(C(=O)NO)c2)nc2cc(Cl)c(Cl)cc21` [Example 22-1, 3-((1-(5-aminopentyl)-5,6-dichloro-1H-benzo[d]imidazol-2-yl)amino)-N-hydroxybenzamide] showed an IC50 of less than 500 nM.
In the case of `O=C(NO)c1cccc(Nc2nc3cc(C(F)(F)F)c(-c4cccc(O)c4)cc3[nH]2)c1` [Example 36-10, N-hydroxy-3-((6-(3-hydroxyphenyl)-5-(trifluoromethyl)-1H-benzo[d]imidazol-2-yl)amino)benzamide], the IC50 is reported as less than 500 nM.
With `Cn1ncc2ccc(-c3cc4[nH]c(Nc5cccc(C(=O)NO)c5)nc4cc3C(F)(F)F)cc21` [Example 36-17, N-hydroxy-3-((6-(1-methyl-1H-indazol-6-yl)-5-(trifluoromethyl)-1H-benzo[d]imidazol-2-yl)amino)benzamide] the IC50 was less than 500 nM.
For `O=C(NO)c1cc(Nc2nc3cc(Cl)c(Cl)cc3o2)ccn1` [Example 4-6, 4-((5,6-dichlorobenzo[d]oxazol-2-yl)amino)-N-hydroxypicolinamide], the IC50 was less than 500 nM.
For `O=C(NO)c1cccc(Nc2nc3cc(C(F)(F)F)c(-c4cccnc4)cc3[nH]2)c1` [Example 36-2, N-hydroxy-3-((6-(pyridin-3-yl)-5-(trifluoromethyl)-1H-benzo[d]imidazol-2-yl)amino)benzamide], the IC50 was less than 500 nM.
In the case of `CC(C)n1c(Nc2cccc(C(=O)NO)c2)nc2cc(-c3ccccc3)c(C(F)(F)F)cc21` [Example 16-2, N-hydroxy-3-((1-isopropyl-5-phenyl-6-(trifluoromethyl)-1H-benzo[d]imidazol-2-yl)amino)benzamide], the IC50 is reported as less than 500 nM.
`COCc1cccc(-c2cc3[nH]c(Nc4cccc(C(=O)NO)c4)nc3cc2C(F)(F)F)c1` [Example 36-16, N-hydroxy-3-((6-(3-(methoxymethyl)phenyl)-5-(trifluoromethyl)-1H-benzo[d]imidazol-2-yl)amino)benzamide] gave an IC50 of less than 500 nM.
Compound `O=C(NO)c1cccc(Nc2nc3cc(Cl)c(C(F)(F)F)cc3[nH]2)c1` [Example 33-6, 3-((5-chloro-6-(trifluoromethyl)-1H-benzo[d]imidazol-2-yl)amino)-N-hydroxybenzamide] has an IC50 of less than 500 nM.
`O=C(NO)c1cccc(Nc2nc3cc(Cl)c(Cl)cc3o2)c1` [Example 1-1, 3-(5,6-dichlorobenzo[d]oxazol-2-ylamino)-N-hydroxybenzamide] was tested, and the IC50 was less than 500 nM.
Compound `Cn1c(Nc2cccc(C(=O)NO)c2)nc2cc(-c3cccnc3)c(C(F)(F)F)cc21` [Example 35-1, N-hydroxy-3-((1-methyl-5-(pyridin-3-yl)-6-(trifluoromethyl)-1H-benzo[d]imidazol-2-yl)amino)benzamide] has an IC50 of 500 to 1000 nM.
With `Cn1c(Nc2cccc(C(=O)NO)c2)nc2cc(C(F)(F)F)c(-c3cccnc3)cc21` [Example 35-2, N-hydroxy-3-((1-methyl-6-(pyridin-3-yl)-5-(trifluoromethyl)-1H-benzo[d]imidazol-2-yl)amino)benzamide] the IC50 was less than 500 nM.
For `O=C(NO)c1cccc(Nc2nc3cncnc3[nH]2)c1` [Example 30-1, 3-((9H-purin-8-yl)amino)-N-hydroxybenzamide], the IC50 was greater than 1000 nM.
`CC(C)n1c(Nc2cccc(C(=O)NO)c2)nc2cc(C(F)(F)F)c(-c3ccccc3)cc21` [Example 16-1, N-hydroxy-3-(1-isopropyl-6-phenyl-5-(trifluoromethyl)-1H-benzo[d]imidazol-2-ylamino)benzamide] showed an IC50 of less than 500 nM.
Work on `O=C(NO)c1cccc(Nc2nc3cc(C(F)(F)F)ccc3[nH]2)c1` [Example 33-22, N-hydroxy-3-((5-(trifluoromethyl)-1H-benzo[d]imidazol-2-yl)amino)benzamide] yielded an IC50 of less than 500 nM.
`COCCn1c(Nc2cccc(C(=O)NO)c2)nc2cccc(OC)c21` [Example 24-2, N-hydroxy-3-((7-methoxy-1-(2-methoxyethyl)-1H-benzo[d]imidazol-2-yl)amino)benzamide] gave an IC50 greater than 1000 nM.
With `O=C(NO)c1cccc(Nc2nc3cc(C(F)(F)F)c(-c4cc(F)ccc4CO)cc3[nH]2)c1` [Example 36-15, 3-((6-(5-fluoro-2-(hydroxymethyl)phenyl)-5-(trifluoromethyl)-1H-benzo[d]imidazol-2-yl)amino)-N-hydroxybenzamide] the IC50 was less than 500 nM.
With `N#Cc1cc2nc(Cc3cccc(C(=O)NO)c3)[nH]c2cc1C(F)(F)F` [Example 27-1, 3-((5-cyano-6-(trifluoromethyl)-1H-benzo[d]imidazol-2-yl)methyl)-N-hydroxybenzamide] the IC50 was less than 500 nM.
`Cc1cc2[nH]c(Nc3cccc(C(=O)NO)c3)nc2cc1Cl` [Example 33-2, 3-((5-chloro-6-methyl-1H-benzo[d]imidazol-2-yl)amino)-N-hydroxybenzamide] showed an IC50 of less than 500 nM.
Compound `O=C(NO)c1cccc(Nc2nc3ncccc3o2)c1` [Example 32-1, N-hydroxy-3-(oxazolo[4,5-b]pyridin-2-ylamino)benzamide] has an IC50 greater than 1000 nM.
In the case of `O=C(NO)c1cccc(Nc2nc3cc4c(cc3[nH]2)OCCCO4)c1` [Example 33-8, 3-((7,8-dihydro-1H,6H-[1,4]dioxepino[2′,3′:4,5]benzo[1,2-d]imidazol-2-yl)amino)-N-hydroxybenzamide], the IC50 is reported as greater than 1000 nM.
